Results from patent publication US8710097B2, “Flavonoid dimers and methods of making and using such” (The Hong Kong Polytechnic University, priority 2006, dated 2014).
“And” between values parts separate entries of the source, which are not always exact repeats. Identical values can stand only once.

Columns and labels:
MDA435/LCC6 MDR cells [1] = experiment: cells
LePentR50 promastigotes = experiment: Pentamidine accumulation assay by HPLC; assay type: cell-based, Leishmania enriettii; settings: 0.84 mM pentamidine, 3 hr
Procedure: The effect of flavonoid dimers on accumulation of pentamidine was investigated. […] After 3 hrs of incubation, the parasites were washed three times with cold PBS, pH 7.4. The cell pellet was then dissolved in 350 μL 75% acetonitrile and lysed by repeated freeze-thaw cycles. After lysing, the lysed cell suspension was centrifuged at 14,000 g at 4° C. for 10 min. The supernatant was collected and ready for determining pentamidine concentration using HPLC (Agilent 1100 Series). The pentamidine pools were analyzed on Zorbax ODS C18 column (4.6 mm×25 cm, 5-micron) kept at 40° C. The mobile phase consisted of water (10 mM tetramethylammonium chloride (TMAC), 10 mM sodium heptanesulphonate (SHS), 4.2 mM phosphoric acid (PA)) for pump A and 75% acetonitrile (ACN) in water (10 mM TMAC, 10 mM SHS, 4.2 mM PA) for pump B. The column was equilibrated at 40° C. overnight before analyses. Using a flow rate of 1.0 mL/min and signal at 265 nm, analyses were made at 58% pump A and 42% pump B. The retention time of pentamidine is 3.2 min. Compound 9d would not be eluted out under these conditions. To generate a standard curve, a 200 μM stock solution of pentamidine isethionate salt were prepared by dissolving 2.5 mg pentamidine isethionate salt in 21 mL 75% ACN (10 mM TMAC, 10 mM SHS, 4.2 mM PA). Concentration of 100, 50, 25 and 13 μM were then made by serial dilution, allowing the generation of standard curve.

[2] = tested on: tested MDR cell lines (drug resistant breast cancer and leukemia cells); assay type: cell-based
From the text: Cell proliferation assay.

MDA435/LCC6 MDR cells [3] = experiment: Doxorubicin accumulation; assay type: cell-based, human
Procedure: Doxorubicin accumulation. 2.5 ml (10^5 cells/ml) MDA435/LCC6 (both parent and MDR subtype) cells were seeded in each well of 6-well plates. At confluence, culture medium was removed. 2 ml of fresh DMEM with modulators was added and cells were incubated for 30 min at 37° C. Doxorubicin (final concentration of 20 μM) was then added and incubated for 2 h at 37° C. The cells were then harvested by trypsinization.
For P388 (both parent and MDR subtype) cells, 1 ml (10^5 cells) confluent cells were aliquot into Eppendorf tube and pre-incubated with flavone dimers for 30 min at 37° C. Doxorubicin (final concentration of 10 μM) was then added and incubated for 2 h at 37° C. at a final concentration of 10 μM. The cell pellets were washed 3 times with cold PBS by using an Eppendorf micro-centrifuge and lysed with 0.3N HCL in 50% ethanol, and sonicated for 30s. After centrifugation at 10000 rpm/min for 3 min, the supernatant was saved. The fluorescence of doxorubicin was measured using a spectrofluorometer (λexcite=470 nm, λemit=585 nm).
In order to understand whether the modulating activity for various anticancer drugs by different dimers is due to their different ability to modulate P-gp mediated drug efflux, their effects on the accumulation of doxorubicin in both MDA435/LCC6 sensitive and resistant cells were investigated. Doxorubicin was a fluorescent drug substrate of P-gp and was used in this experiment to monitor the P-gp mediated drug efflux. Accumulation of doxorubicin in these cells was determined in the presence or absence of apigenin dimers (10 μM) and monomer (20 μM). Verapamil was used as a positive control.

P388/ADR cells = experiment: cells; settings: P388/ADR
[4] = MDA435/LCC6 MDR, 5 μM dimer, FIG. 5

## O=c1cc(-c2ccc(OCCOCCOCCOCCOc3ccc(-c4cc(=O)c5c(O)cc(O)cc5o4)cc3)cc2)oc2cc(O)cc(O)c12 [Compound 9d, 1,13-Bis[4′-((5,7-dihydroxy)-4H-chromen-4-on-2-yl)phenyl]-1,4,7,10,13-pentaoxamidecane]
MDA435/LCC6 MDR cells [1]; LCC6 MDR, daunorubicin + 5 μM 9d
  RF, daunorubicin (IC50 without modulator / IC50 with modulator): 7.6
MDA435/LCC6 MDR cells [1]; LCC6 MDR, doxorubicin + 5 μM 9d or VP
  RF, doxorubicin (IC50 without modulator / IC50 with modulator): 9
MDA435/LCC6 MDR cells [1]; LCC6 MDR, mitoxantrone + 5 μM 9d
  RF, mitoxantrone (IC50 without modulator / IC50 with modulator): 2.2
MDA435/LCC6 MDR cells [1]; LCC6 MDR, taxol + 5 μM 9d or VP
  RF, taxol (IC50 without modulator / IC50 with modulator): 22
MDA435/LCC6 MDR cells [1]; LCC6 MDR, vinblastine + 5 μM 9d or VP
  RF, vinblastine (IC50 without modulator / IC50 with modulator): 10
MDA435/LCC6 MDR cells [1]; LCC6 MDR, vincristine + 5 μM 9d
  RF, vincristine (IC50 without modulator / IC50 with modulator): 41
MDA435/LCC6 MDR cells [1]; MDA435/LCC6 MDR, 5 μM 9d, FIG. 6A to 6E
  reversal of resistance to vinblastine, taxol, doxorubicin, vincristine, daunorubicin: to a level close to the parental
MDA435/LCC6 MDR cells [1]; MDA435/LCC6 MDR, 5 μM 9d, FIG. 6F
  effect on mitoxantrone resistance: No effect
MDA435/LCC6 MDR cells [1]; [4]
  IC60 of doxorubicin with modulator: 730 nM
  reduction of IC60 of doxorubicin, RF: about 6 RF
MDA435/LCC6 MDR cells [1]; MDA435/LCC6 MDR, FIG. 3B
  concentration reaching the plateau of taxol reversing activity: 5 µM
LePentR50 promastigotes; 15 μM 9d
  intracellular pentamidine concentration: 2.95±0.01 μM pentamidine/mg protein
LePentR50 promastigotes; 30 μM 9d
  intracellular pentamidine concentration: 4.69±0.51 μM pentamidine/mg protein
LePentR50 promastigotes; 60 μM 9d
  intracellular pentamidine concentration: 26.6±0.6 μM pentamidine/mg protein
[2]
  increase of cytotoxicity of anticancer drugs: 6-50 RF
MDA435/LCC6 MDR cells [3]; LCC6 MDR, 10 μM 9d
  doxorubicin accumulation relative to 9d-treated LCC6 cells: 97%
MDA435/LCC6 MDR cells [3]; LCC6 MDR, apigenin dimers 10 μM, 20 μM doxorubicin, 2 h
  enhancement of doxorubicin accumulation, folds of control: 5.8 folds and 4 folds
MDA435/LCC6 MDR cells [3]; MDA435/LCC6 MDR, 10 μM 9d, FIG. 7B
  intracellular doxorubicin concentration, % of the LCC6: 88%
P388/ADR cells; 5 μM 9d
  reversal of resistance to taxol, vincristine and vinblastine: completely reverse the resistance of P388/ADR to almost the sensitive level
P388/ADR cells; 9d
  effect on mitoxantrone resistance: no effect
P388/ADR cells; FIG. 8B, 9B
  saturating concentration for reversing doxorubicin and daunorubicin resistance: about 5 μM
P388/ADR cells; daunorubicin + 5 μM 9d or VP
  RF, daunorubicin: 20
P388/ADR cells; doxorubicin + 5 μM 9d
  RF, doxorubicin: 14
P388/ADR cells; mitoxantrone + 5 μM 9d
  RF, mitoxantrone: 2
P388/ADR cells; taxol + 5 μM 9d
  RF, taxol: 55
P388/ADR cells; vinblastine + 5 μM 9d
  RF, vinblastine: 22
P388/ADR cells; vincristine + 5 μM 9d
  RF, vincristine: 66
